Columns and labels:
[1] = Ferric reducing power (FRAP) assay; type: biochemical; conditions: compared with daphnetin or the parent compound
Method: (§1) The antioxidant activity is influenced by many factors, which cannot be fully described with a single antioxidant assay. Thus, in this study, antioxidant activities in vitro were evaluated using the free radical scavenging effect on 2,2′-diphenyl-1-picrylhydrazyl (DPPH), 2,2′-azinobis-(3-ethylbenzthiazoline-6-sulfonate) cation (ABTS^+). and the ferric reducing power (FRAP) assay, respectively, according to the literature with a slight modification.
The FRAP (ferric reducing antioxidant power) reagent was prepared with acetate buffer (300 mmol/L, pH 3.6), 2,4,6-tripyridyl-s-triazine (TPTZ) (10 mmol/L in HCl, 40 mmol/L) and FeCl3 (20 mmol/L). The proportions were 10:1:1 (v:v:v), respectively. Each sample solution was added to the FRAP reagent (1:30, v:v) and incubated at 37 °C for 5 min. The absorbance was determined at 593 nm using a spectrophotometer (Hitachi U-2800 Spectrophotometer, Tokyo, Japan). The Trolox standard solution (concentration range: 0–0.4 mmol/L) in ethanol was analyzed under the same conditions as those used for the calibration. The values of the reducing power were determined using a calibration curve of Trolox and expressed as the Trolox equivalent ([…], mmolTrolox/mmol sample).

[2] = ABTS+ radical scavenging assay; type: biochemical; conditions: 3 min at room temperature, absorbance 734 nm, triplicate
Method: as §1
The mixture was incubated in the dark at room temperature for 15–16 h before use. […] Each sample solution (0.1 mL) was added to 3.9 mL ABTS^+ solution, and the absorbance was measured at room temperature after 3 min. The Trolox standard solution (concentration range: 0–0.4 mmol/L) in ethanol was analyzed under the same conditions as those used for the calibration. […]

[3] = tested on: human single cell DNA; parameters: method as in PMID 12561251; conditions: cited from earlier work
[4] = DPPH radical scavenging assay; type: biochemical; conditions: DPPH radical scavenging, 30 min at room temperature, absorbance 517 nm, triplicate
Method: as §1
Each sample in an ethanol solution (0.1 mL) was added to 3.9 mL DPPH ethanol solution (0.1 mmol/L). The solution was vortexed for 10 s and incubated at room temperature for 30 min. […] The Trolox standard solution (concentration range: 0–0.4 mmol/L) in ethanol was analyzed under the same conditions as those used for calibration. […]

[5] = tested on: mononuclear cells of umbilical blood; parameters: method as in PMID 15113635; conditions: cited from earlier work

For `Cc1cc(=O)oc2c(O)c(O)ccc12` [Compound 2, 7,8-Dihydroxy-4-methyl-2H-chromen-2-one], the “reducing antioxidant power (FRAP), result in words” value [1] is listed as “decreased activities of daphnetin but were still superior to Trolox”, the EC50 [2] is listed as 224.5 ± 1.94 µM and the “protection of human single cell DNA from oxidative attack, compared with curcumin and resveratrol” value [3] is listed as “more effective in protection of human single cell DNA from oxidative attack than curcumin and resveratrol”. The EC50 [4] was 85.6 ± 2.13 µM and the “protection of mononuclear cells of umbilical blood from oxidative attack, compared with resveratrol” value [5] was “stronger activities in protecting mononuclear cells of umbilical blood from oxidative attack than resveratrol”.

Reference: article PMC6222747, “Synthesis and Structure-Activity Relationship of Daphnetin Derivatives as Potent Antioxidant Agents” (Molecules : A Journal of Synthetic Chemistry and Natural …, 2018)
